The record followed here is US20250179047A1, “5-[7-(3,4-DIHYDRO-1H-ISOQUINOLINE-2-CARBONYL)-1,2,3,4 TETRAHYDROISOQUINOLIN-6-YL]-1H-PYRROLE-3-CARBOXAMIDE DERIVATIVES, PHARMACEUTICAL COMPOSITIONS CONTAINING THEM AND THEIR USES AS PRO-APOPTOTIC AGENTS” (LES LABORATOIRES SERVIER, priority 2022, published 2025).

One experiment deals with BCLXL WT (Homo sapiens (Human), UniProt Q07817). Kind of experiment: TR-FRET competitive binding assay, BCLXL WT. The settings on record: for Ki: BCLXL WT, Ki determined from IC50, read-out: TR_FRET EKI BclxL; for TR_FRET EKI BCLxL/WT selectivty ratio: ratio Ki BCLxL / Ki BCL2 WT. The method, then: (§1) The relative binding potency of each compound was determined in a competitive binding assay using time resolved-fluorescence resonance energy transfer (TR-FRET). The method utilised a fluorescein labelled peptide derived from PUMA (5Flu-Ahx-[…]-NH2 wherein Ahx means 6-hexanoic acid monomer and the amino acid sequence is referred to as SEQ ID:01) which binds to a terbium labelled BCL2 or BCLXL protein. The degree of binding or corresponding compound inhibition can be quantified by the TR-FRET signal between the terbium donor and fluorescein acceptor.
(§2) The human BCL2_wild-type (also named BCL2_wt), BCL2_G101V mutant and BCLXL_wild-type were E. coli expressed as a N-terminal Halo-fusion proteins and singly labelled with Terbium on the Halo protein to afford the following amino acid sequences:
(§3) wherein the BCL2(1-207) sequence corresponds to UniProtKB® primary accession number P10415 and the BCLXL(2-196) sequence corresponds to UniProtKB® primary accession number Q07817-1.
(§4) The assay was performed in a 40 μL volume in white 384-standard well plates (Corning #3574). An 11-point serial dilution of each compound was prepared in DMSO and transferred directly to plate followed by addition of fluorescein labelled peptide and lastly protein. Final assay conditions were 0.5 nM BCL2_wt, BCL2_G101V, BCL2_D103Y, BCL2_F104I, BCL2_D111A or BCLXL_wt, 2 or 20 nM fluorescein labelled peptide, 50 mM Hepes pH 7.5, 150 mM NaCl, 0.5 mM TCEP (Tris(2-carboxyethyl)phosphine), 0.05% Tween 20, 5% DMSO. The mixture was incubated for 2 hours at 23° C.
(§5) TR-FRET measurements were performed on a Biotek Synergy Neo plate reader. TR-FRET was measured by excitation of the Terbium-donor at 340 nm and subsequent (delay time 100 μs) measurement of terbium and fluorescein emission at 495 nm and 520 nm, respectively, over a collection time of 300 μs. The TR-FRET signal was calculated as the emission-ratio at 520 nm over 495 nm.
(§6) The TR-FRET ratio readout for test compounds was normalized against 0% inhibition controls wells and 100% inhibition control wells. Test compound potency (IC50) was estimated by nonlinear regression using the sigmoidal dose-response (variable slope) using Xlfit 4 (IDBS, Guildford, Surrey, UK, model 205). Were the IC50 could not be determined the % inhibition at the highest tested concentration is given.
(§7) y=(A+((B−A)/(1+((C/x)^D))))
(§8) where y is the normalized TR-TRET ratio measurement for a given concentration of test compound, x is the concentration of test compound, A is the estimated efficacy (% inhibition) at infinite compound dilution, and B is the maximal efficacy (% inhibition). C is the IC50 value and D is the Hill slope coefficient.
(§9) The K1 values were determined from the IC50 values according to Cer et al, Nucleic Acids Res, 2009, July 1; 37 (WebServer issue): W441-W445.

For the next experiment, the system named is KMS-12-PE Bcl-2 WT. Kind of experiment: In vitro cytotoxicity CellTiter-Glo 48 h, KMS-12-PE Bcl-2 WT. It counts as cell-based. The settings on record: Homo sapiens, KMS-12-PE, C50 = concentration needed to reach 50% of the cellular viability. The method, then:
KMS-12-PE (ACC 606) were purchased from the Leibniz-Institute DSMZ (Braunschweig, Germany) and were grown at 37° C. in a humidified atmosphere with […] in media recommended by the suppliers. Lentiviral particles containing Bcl-2 wild type (also named “Bcl2 WT”) and Bcl-2 mutated on G101V (also named “Bcl2 G101V”) were cloned into pcLV-CMV-DEST-IRES-TagRFP. Lentiviral particles (1×106) were mixed with Polybrene at 8 µg/ml and transduced by spinoculation for 1 h at 32° C. and incubated overnight. After 8 days, TagRFP positive-cells were sorted by FACS. BCL2 expression was monitored by immunoblotting using anti-Flag and anti-BCL2 antibodies.
Cellular viability was monitored with the cell viability assay (CellTiter-Glo®) on KMS-12-PE WT and G101V cell lines. The CellTiter-Glo® (CTG) Luminescent Cell Viability Assay (from Promega) is a homogeneous method to determine the number of viable cells in culture based on quantitation of the ATP present, which signals the presence of metabolically active cells.
Dose response of compounds are performed with 10 mM stock solutions (DMSO), 11-points curve, in a 384-well compound plate. The assay plate is prepared by stamping 40 nL from compound dilution plate of all different concentrations (e.g. 10 mM to have final […] assay test) into a cell culture microplate, using Echo acoustic liquid handling (Labcyte, Beckman). 40 μl of cell solution is added and cells are incubated with compounds for 48 h at 37° C., 5% CO2. CTG was added to the cells (according to the manufacturer instructions) and luminescence intensity was recorded using the Pherastar plate reader (BMG).
This assay provides in vitro cellular potency of the tested Bcl-2 inhibitors, measuring the C50, defined as the concentration needed to reach 50% of the cellular viability.
A general note: ATP-based viability assays read luminescence as a measure of living cells.

In the next experiment the target is BCL2 WT (Homo sapiens (Human), UniProt P10415). Briefly: TR-FRET competitive binding assay, BCL2 WT. The settings on record: Ki determined from IC50, read-out: TR_FRET EKI_Bcl2 WT. Here is the method: as §1, §2, §3, §4, §5, §6, §7, §8, §9
For orientation: In TR-FRET formats the signal depends on donor and acceptor labels being close together.

The target of the next experiment is BCL2 D103Y (Homo sapiens, UniProt P10415, D103Y). Kind of experiment: TR-FRET competitive binding assay, BCL2 D103Y. The settings on record: Ki determined from IC50, read-out: TR_FRET EKI_Bcl2 D103Y. The method, then: as §1, §2, §3, §4, §5, §6, §7, §8, §9
Experiment [1] has as its target BCL2 G101V (Homo sapiens, UniProt P10415, G101V). Briefly: TR-FRET competitive binding assay, BCL2 G101V. The settings on record: BCL2 G101V; Ki determined from IC50; read-out: TR_FRET EKI_Bcl2 G101V. The method, then:
as §1, §2, §3, §4, §5, §6, §7, §8, §9

Experiment [2] concerns BCL2 G101V. Kind of experiment: TR-FRET competitive binding assay, BCL2 G101V. The settings on record: ratio Ki BCL2 G101V / Ki BCL2 WT. Further details: species or system human. The method, then:
as §1, §2, §3, §4, §5, §6, §7, §8, §9

Sequence of BCLXL WT (Q07817 other isoform, or with tags, fused parts or gaps): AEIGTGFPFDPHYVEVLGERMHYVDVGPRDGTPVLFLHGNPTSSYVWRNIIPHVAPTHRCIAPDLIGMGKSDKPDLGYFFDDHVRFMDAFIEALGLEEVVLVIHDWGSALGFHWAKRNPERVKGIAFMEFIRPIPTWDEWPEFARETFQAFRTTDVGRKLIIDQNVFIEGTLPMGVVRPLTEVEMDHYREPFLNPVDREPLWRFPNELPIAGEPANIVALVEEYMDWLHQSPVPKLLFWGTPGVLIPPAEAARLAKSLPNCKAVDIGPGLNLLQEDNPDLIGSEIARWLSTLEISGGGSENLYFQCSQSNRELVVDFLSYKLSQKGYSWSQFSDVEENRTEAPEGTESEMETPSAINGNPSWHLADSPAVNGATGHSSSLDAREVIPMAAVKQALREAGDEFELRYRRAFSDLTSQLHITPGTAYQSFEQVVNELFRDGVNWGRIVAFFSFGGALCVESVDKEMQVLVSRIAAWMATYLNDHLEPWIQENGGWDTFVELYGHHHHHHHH

Turning to `COc1ccc(N(C(=O)c2cc(-c3cc4c(cc3C(=O)N3Cc5ccccc5C[C@H]3C)CN(C(=O)Cc3ccc(OCCN5CCOCC5)cc3)CC4)n(C)c2C)c2ccccc2)cc1C#N` [Example 182, N-(3-cyano-4-methoxy-phenyl)-1,2-dimethyl-5-[7-[(3R)-3-methyl-3,4-dihydro-1H-isoquinoline-2-carbonyl]-2-[2-[4-(2-morpholinoethoxy)phenyl]acetyl]-3,4-dihydro-1H-isoquinolin-6-yl]-N-phenyl-pyrrole-3-carboxamide], the Ki at BCLXL WT was determined as 11.8 nM; at BCL2 WT, 0.11 nM; at BCL2 D103Y, 0.3 nM; on BCL2 G101V [1], 1.5 nM. The “TR_FRET EKI BCLxL/WT selectivty ratio” value on BCLXL WT is recorded as 107.1. For the same compound, half-maximal inhibition with KMS-12-PE Bcl-2 WT (IC50) was put at 0.0097 µM. In the experiment with BCL2 G101V [2], the “TR_FRET EKI G101V/WT selectivty ratio” value came to 13.3.
In the case of `COc1ncc(N(C(=O)c2cc(-c3cc4c(cc3C(=O)N3Cc5ccccc5C[C@H]3C)CN(C(=O)Cc3ccc(OCCN5CCOCC5)cc3)CC4)n(C)c2C)c2ccccc2)cc1F` [Example 183, N-(5-fluoro-6-methoxy-3-pyridyl)-1,2-dimethyl-5-[7-[(3R)-3-methyl-3,4-dihydro-1H-isoquinoline-2-carbonyl]-2-[2-[4-(2-morpholinoethoxy)phenyl]acetyl]-3,4-dihydro-1H-isoquinolin-6-yl]-N-phenyl-pyrrole-3-carboxamide], the Ki at BCLXL WT was determined as 15.1 nM; at BCL2 WT, 0.13 nM; on BCL2 D103Y, 0.35 nM; on BCL2 G101V [1] it was 5.6 nM. Besides, the “TR_FRET EKI BCLxL/WT selectivty ratio” value at BCLXL WT is given as 117.3. Further, the IC50 – broadly, the concentration needed to halve the response being measured – in the experiment on KMS-12-PE Bcl-2 WT turned out to be 0.0143 µM. The “TR_FRET EKI G101V/WT selectivty ratio” value in the experiment with BCL2 G101V [2] is reported as 43.8.
As for `Cc1c(C(=O)N(c2ccccc2)c2cnn(C)c2)cc(-c2cc3c(cc2C(=O)N2Cc4ccccc4C[C@H]2C)CN(C(=O)Cc2ccc(OCCN4CCOCC4)cc2)CC3)n1C` [Example 184, 1,2-dimethyl-5-[7-[(3R)-3-methyl-3,4-dihydro-1H-isoquinoline-2-carbonyl]-2-[2-[4-(2-morpholinoethoxy)phenyl]acetyl]-3,4-dihydro-1H-isoquinolin-6-yl]-N-(1-methylpyrazol-4-yl)-N-phenyl-pyrrole-3-carboxamide], the Ki at BCLXL WT came to 12.3 nM; at BCL2 WT it was 0.03 nM; on BCL2 D103Y it was 0.09 nM; at BCL2 G101V [1] it was 2 nM. Moreover, the “TR_FRET EKI BCLxL/WT selectivty ratio” value at BCLXL WT stood at 411.3. This compound yielded a half-maximal inhibitory concentration (IC50) in the experiment on KMS-12-PE Bcl-2 WT of 0.0061 µM. For the same compound, the “TR_FRET EKI G101V/WT selectivty ratio” value in the experiment on BCL2 G101V [2] is recorded as 66.2.
`Cc1c(N(C(=O)c2cc(-c3cc4c(cc3C(=O)N3Cc5ccccc5C[C@H]3C)CN(C(=O)Cc3ccc(OCCN5CCOCC5)cc3)CC4)n(C)c2C)c2ccc(F)cc2)cc(C#N)n1C` [Example 185, N-(5-cyano-1,2-dimethyl-pyrrol-3-yl)-N-(4-fluorophenyl)-1,2-dimethyl-5-[7-[(3R)-3-methyl-3,4-dihydro-1H-isoquinoline-2-carbonyl]-2-[2-[4-(2-morpholinoethoxy)phenyl]acetyl]-3,4-dihydro-1H-isoquinolin-6-yl]pyrrole-3-carboxamide]: the Ki turned out to be 5.9 nM on BCLXL WT, 0.06 nM on BCL2 WT, 0.13 nM at BCL2 D103Y and 1.5 nM on BCL2 G101V [1]. Moreover, the “TR_FRET EKI BCLxL/WT selectivty ratio” value at BCLXL WT amounted to 92.8. For the same compound, in the experiment on KMS-12-PE Bcl-2 WT, the IC50 was 0.0051 µM. The “TR_FRET EKI G101V/WT selectivty ratio” value with BCL2 G101V [2] was 23.4.
On to `Cc1nn(C)cc1N(C(=O)c1cc(-c2cc3c(cc2C(=O)N2Cc4ccccc4C[C@H]2C)CN(C(=O)Cc2ccc(OCCN4CCOCC4)cc2F)CC3)n(C)c1C)c1ccccc1` [Example 187, N-(1,3-dimethylpyrazol-4-yl)-5-[2-[2-[2-fluoro-4-(2-morpholinoethoxy)phenyl]acetyl]-7-[(3R)-3-methyl-3,4-dihydro-1H-isoquinoline-2-carbonyl]-3,4-dihydro-1H-isoquinolin-6-yl]-1,2-dimethyl-N-phenyl-pyrrole-3-carboxamide], for which the Ki on BCLXL WT was determined as 17.3 nM; on BCL2 WT, 0.03 nM; on BCL2 D103Y, 0.08 nM; at BCL2 G101V [1], 2.7 nM. Also, at BCLXL WT, the “TR_FRET EKI BCLxL/WT selectivty ratio” value was determined as 507.9. In the experiment with KMS-12-PE Bcl-2 WT, this compound displayed an IC50 of 0.0069 µM. Further, the “TR_FRET EKI G101V/WT selectivty ratio” value with BCL2 G101V [2] was 78.9.
For the compound `Cc1nn(C)cc1N(C(=O)c1cc(-c2cc3c(cc2C(=O)N2Cc4ccccc4C[C@H]2C)CN(C(=O)Cc2ccc(OCCN4CCOCC4)cc2)CC3)n(C)c1C)c1ccccc1` [Example 188, N-(1,3-dimethylpyrazol-4-yl)-1,2-dimethyl-5-[7-[(3R)-3-methyl-3,4-dihydro-1H-isoquinoline-2-carbonyl]-2-[2-[4-(2-morpholinoethoxy)phenyl]acetyl]-3,4-dihydro-1H-isoquinolin-6-yl]-N-phenyl-pyrrole-3-carboxamide], the Ki at BCLXL WT stood at 23.9 nM; at BCL2 WT it was 0.03 nM; at BCL2 D103Y it was 0.09 nM; at BCL2 G101V [1], 2.2 nM. Further, the “TR_FRET EKI BCLxL/WT selectivty ratio” value at BCLXL WT is reported as 769.6. The compound further returned an IC50 with KMS-12-PE Bcl-2 WT of 0.0113 µM. Besides, the “TR_FRET EKI G101V/WT selectivty ratio” value with BCL2 G101V [2] is given as 71.6.
Consider `COCC(=O)N1CCc2cc(-c3cc(C(=O)N(c4ccccc4)c4cc(C#N)n(C)c4C)c(C)n3C)c(C(=O)N3Cc4ccccc4C[C@H]3CN3CCCCC3)cc2C1` [Example 189, N-(5-cyano-1,2-dimethyl-pyrrol-3-yl)-5-[2-(2-methoxyacetyl)-7-[(3S)-3-(1-piperidylmethyl)-3,4-dihydro-1H-isoquinoline-2-carbonyl]-3,4-dihydro-1H-isoquinolin-6-yl]-1,2-dimethyl-N-phenyl-pyrrole-3-carboxamide], for which the Ki was 33.4 nM at BCLXL WT, 0.19 nM on BCL2 WT, 1.99 nM at BCL2 D103Y and 17.4 nM at BCL2 G101V [1]. For the same compound, on BCLXL WT, the “TR_FRET EKI BCLxL/WT selectivty ratio” value turned out to be 176.8. In the experiment on KMS-12-PE Bcl-2 WT, this compound showed an IC50 of 0.0299 µM. Besides, in the experiment on BCL2 G101V [2], the “TR_FRET EKI G101V/WT selectivty ratio” value came to 92.0.
